{"source": "patent US8562946B2", "about": "“Miniaturized 62Zn/62Cu generator for high concentration clinical delivery of 62Cu kit formulation for the facile preparation of radiolabeled Cu-bis(thiosemicarbazone) compounds” (Proportional Technologies, Inc., priority 2003, dated 2013)", "key": {"[1]": {"settings": "cited from earlier work"}, "[2]": {"test": "octanol/water partition coefficients of Cu bis(thiosemicarbazone) complexes", "format": "physicochemical"}, "[3]": {"settings": "in humans; cited from earlier work"}, "[4]": {"settings": "most animal species other than humans; cited from earlier work"}, "[5]": {"test": "ligand solubility (DMSO, water)", "format": "physicochemical", "settings": "crystalline form dissolved in DMSO", "method": "Studies evaluating the compatibility of the bis(thiosemicarbazone) ligands with lyophilization based kit synthesis were conducted using H2PTSM as a model compound. The first of these studies evaluated the feasibility of ligand lyophilization and rapid reconstitution. The entire class of bis(thiosemicarbazone) compounds is very insoluble in water. Consequently, in order to prepare a principally aqueous solution for lyophilization, the crystalline form of the H2PTSM was dissolved at the maximum concentration in dimethylsulfoxide (DMSO), (200 mg/mL H2PTSM). […] To minimize the possibility of ligand precipitation, the DMSO solution was added to hot water (90° C.) during rapid stifling. This solution was then cooled to room temperature and assayed for potency using a spectrophotometer. The very small amount of DMSO in the aqueous solution is expected to sublimate along with water during lyophilization. In order to ensure maximum potency after lyophilization, an excipient (either dextrose [6.7 mg/mL], trehalose [6.7 mg/mL] or sodium acetate [5.4 mg/mL]) was added. The purpose of the excipient was to prevent the ligand from crystallizing out by maintaining dispersion in the cake formed during lyophilization. The sodium acetate performed the added function of buffering the final product to acceptable pH upon addition of 0.1-0.15 mL of ^62Zn/^62Cu generator eluted solution. […]"}}, "note": "Where two headings read alike, the source gives them in different places."}
{"smiles": "CCC(C=NNC(N)=S)=NNC(N)=S.[Cu]", "note": "[ETS, ^62Cu ethylglyoxal bis(thiosemicarbazone)]", "values": [{"measurement": "binding to blood plasma", "setting": "[1]", "value": "low reversible binding"}, {"measurement": "log P", "setting": "[2]; octanol/water, from measured partition coefficients P of the corresponding 67Cu-complexes", "value": 1.35}]}
{"smiles": "CN=C([S-])N/N=C/C(C)=N/NC([S-])=NC.[Cu+2]", "note": "[PTSM, Copper(II) ^62Cu pyruvaldehyde bis(N4-methylthiosemicarbazone)]", "values": [{"measurement": "binding to blood", "setting": "[3]", "value": "significant binding"}, {"measurement": "binding to blood", "setting": "[4]", "value": "low binding"}]}
{"smiles": "CNC(=S)NN=C(C)C(C)=NNC(=S)NC", "note": "[H2ATSM, diacetyl-bis(N4-methylthiosemicarbazone)]", "values": [{"measurement": "difference in octanol/water partition coefficients", "setting": "[2]; H2ATSM vs H2PTSM (Table 2)", "value": 0.34}]}
{"smiles": "CNC(=S)NN=CC(C)=NNC(=S)NC", "note": "[H2PTSM, pyruvaldehyde bis(N4-methylthiosemicarbazone)]", "values": [{"measurement": "maximum concentration in dimethylsulfoxide (DMSO)", "setting": "[5]", "value": 200, "unit": "mg/mL"}]}
